# Assay results from patent US20150283139A1, “CANCER TREATMENT METHOD” (SmithKline Beecham (Cork) Limited, priority 2004, published 2015).
# Legend:
# [1] = in vivo; cited from earlier work
# [2] = system: NSCLC adenocarcinoma; details: first-line gefitinib, Asian, female, non-smokers; cited from earlier work
# [3] = system: non small cell lung cancer (NSCLC) brain metastases; details: eight subjects with newly diagnosed, untreated NSCLC brain metastases; cited from earlier work
# [4] = system: brain metastases from erbB-2 overexpressing, metastatic breast cancer; experiment: Clinical study of orally administered lapatinib, PET scan of brain lesions; assay type: in vivo, human; details: one patient, 750 mg lapatinib twice daily, previously treated with trastuzumab
# From the text: Safety and efficacy assessments (independent review) were to be carried out at 2 and 4-week intervals respectively. PET scans were to be run at baseline, 1 week and 8 weeks and MRI at baseline, 8 weeks, and 16 weeks.
smiles,measurement,setting,value
Cn1nnc2c(C(N)=O)ncn2c1=O [Temozolomide],crossing of the blood-brain barrier,[1],readily crosses the blood-brain barrier
COc1cc2ncnc(Nc3ccc(F)c(Cl)c3)c2cc1OCCCN1CCOCC1 [gefitinib],partial response rate,[2],69%
same,systemic disease control rate,[2],80%
same,subjects with prolonged CNS partial responses,[3],Seven out of eight
"CS(=O)(=O)CCNCc1ccc(-c2ccc3ncnc(Nc4ccc(OCc5cccc(F)c5)c(Cl)c4)c3c2)o1.Cc1ccc(S(=O)(=O)O)cc1 [lapatinib, N-{3-Chloro-4-[(3-fluorobenzyl)oxy]phenyl}-6-[5-({[2-(methanesulphonyl)ethyl]amino}methyl)-2-furyl]-4-quinazolinamine ditosylate monhydrate]",initial week 1 PET scan results (brain lesions),[4],promising activity with a dramatic change in one lesion while other brain lesions showed less change or no change at all
